Data reported in article PMC10087074 (Clinical and Translational Science, 2023).
Like-named read-outs stand apart in the source and are kept apart here.

How the values were obtained:
[1] = Population PK of trazodone and gabapentin as single agents in mice; type: in vivo; conditions: for D 1 (duration of the zero‐order absorption) / k 12 (intercompartment rate constant) / k 21 (intercompartment rate constant): male mice, fasting, population PK estimate; for Inter‐individual variability ω2 of V / Inter‐individual variability ω2 of k / Inter‐individual variability ω2 of k12: mice, population PK variance estimate; for Vd/F / k el: male, mouse, plasma
plasma protein [2] = conditions: cited from earlier work
plasma protein [3] = conditions: cited from earlier work; remark: listed apart in the source
[4] = tested on: acetic acid‐induced writhings in male CD‐1 mice; experiment: Acetic acid‐induced writhing test in mice with PK/PD model; conditions: for interindividual variability in the k 2, percent coefficient of variation: single‐agent model
[5] = tested on: patients with diabetes with peripheral neuropathy / painful distal symmetrical polyneuropathy; conditions: cited from earlier work
[6] = tested on: thermal hyperalgesia in CCI rat model; conditions: cited from earlier work
[7] = gabapentin 10, 30 and 100 mg/kg
[8] = combination model, interaction (synergism), trazodone‐gabapentin 0.075–1.5, 0.15–1.5 mg/kg
[9] = combination model, pure additivity, trazodone‐gabapentin 0.075–1.5, 0.15–1.5 mg/kg
[10] = combination model, pure additivity, trazodone‐gabapentin 0.5–5, 1.5–15 mg/kg
[11] = single model, gabapentin i.p. 1.5, 5 and 15 mg/kg
[12] = 31 patients, oral trazodone 50 or 100 mg/day for 2 weeks

NCC1(CC(=O)O)CCCCC1 [Gabapentin]
D 1 (duration of the zero‐order absorption) [1, 7]: 0.167 h | k 12 (intercompartment rate constant) [1, 7]: 0.935 h⁻¹ | k 21 (intercompartment rate constant) [1, 7]: 0.110 h⁻¹ | Inter‐individual variability ω2 of V [1, 7]: 0.00287 | Inter‐individual variability ω2 of k [1, 7]: 0.337 | Inter‐individual variability ω2 of k12 [1, 7]: 1.43 | Vd/F ([1]; 100 mg/kg): 0.846 L/kg | k el ([1]; 100 mg/kg): 3.11e-05 s⁻¹ | plasma protein binding (plasma protein [2]; humans): not protein‐bound | plasma protein binding (plasma protein [3]; mice): not protein‐bound | Interindividual variance ω2 of k2 [4, 8]: 1.78 | k 2 (potency parameter) [4, 8]: 817 M⁻¹ s⁻¹ | Interindividual variability ω2 of k2 [4, 9]: 1.67 | k 2 (potency parameter) [4, 9]: 1350 M⁻¹ s⁻¹ | Interindividual variability ω2 of k2 [4, 10]: 1.71 | k 2 (potency parameter) [4, 10]: 667 M⁻¹ s⁻¹ | antinociceptive effect (number of writhes vs vehicle) ([4]; gabapentin alone 1.5 mg/kg i.p.): ineffective | antinociceptive effect (number of writhes vs vehicle) ([4]; gabapentin alone 5 or 15 mg/kg i.p., p < 0.001): significant reduction of the writhes number | Interindividual variability ω2 of k2 [4, 11]: 1.97 | k 2 (potency parameter) [4, 11]: 765 M⁻¹ s⁻¹ | interindividual variability in the k 2, percent coefficient of variation [4]: 140

O=c1n(CCCN2CCN(c3cccc(Cl)c3)CC2)nc2ccccn12 [Trazodone]
Vd/F ([1]; 10 mg/kg): 5.95 L/kg | k el ([1]; 10 mg/kg): 0.000347 s⁻¹ | D 1 (duration of the zero‐order absorption) ([1]; trazodone 1, 3 and 10 mg/kg): 0.0833 h | k 12 (intercompartment rate constant) ([1]; trazodone 1, 3 and 10 mg/kg): 0.982 h⁻¹ | k 21 (intercompartment rate constant) ([1]; trazodone 1, 3 and 10 mg/kg): 1.51 h⁻¹ | Inter‐individual variability ω2 of V ([1]; trazodone 1, 3 and 10 mg/kg): 0.0526 | Inter‐individual variability ω2 of k ([1]; trazodone 1, 3 and 10 mg/kg): 0.00899 | Inter‐individual variability ω2 of k12 ([1]; trazodone 1, 3 and 10 mg/kg): 0.577 | plasma protein binding (plasma protein [2]; human, ref internal unpublished data): 97% | plasma protein binding (plasma protein [3]; mouse, ref internal unpublished data): 89% | patients who experienced complete relief [5, 12]: 22.6% | patients who experienced symptomatic relief [5, 12]: 61.3% | effect on pain and numbness ([5]; six patients with diabetes affected by peripheral neuropathy, 100 mg/day): good effect in pain relief and numbness | effect on thermal hyperalgesia [6]: dose‐dependent analgesic effect | Interindividual variance ω2 of k2 [4, 8]: 1.42 | k 2 (potency parameter) [4, 8]: 182000 M⁻¹ s⁻¹ | Interindividual variability ω2 of k2 [4, 9]: 1.43 | k 2 (potency parameter) [4, 9]: 212000 M⁻¹ s⁻¹ | Interindividual variability ω2 of k2 [4, 10]: 1.40 | k 2 (potency parameter) [4, 10]: 170000 M⁻¹ s⁻¹ | k 2 (potency parameter) ([4]; single model, trazodone o.s. 0.075, 0.15, 0.5, 1.5, 2.5 and 4.5 mg/kg): 182000 M⁻¹ s⁻¹ | Interindividual variability ω2 of k2 ([4]; single model, trazodone o.s. 0.075-4.5 mg/kg): 1.42 | interindividual variability in the k 2, percent coefficient of variation [4]: 119 | antinociceptive effect (number of writhes vs vehicle) ([4]; trazodone alone 0.075 or 0.15 mg/kg o.s.): ineffective | antinociceptive effect (number of writhes vs vehicle) ([4]; trazodone alone 0.5 or 1.5 mg/kg o.s., p < 0.001): significant reduction of the writhes number
